Results: article PMC7031696 (Cell chemical biology, 2019)
pIC50: −log10 of the molar value. Read-outs that look alike come from different tables or passages of the source.

Experiments:
[1] = test system: Plasmodium falciparum 3D7-A10 parasites; assay: Stage specificity assay (8-h exposure of synchronized stages, IC50^8h); type: cell-based; conditions: for pIC50: Plasmodium falciparum
[2] = test system: asynchronous 3D7-A10 parasite cultures; assay: Standard 72-h exposure asexual blood stage susceptibility assay (IC50^72h); type: cell-based, Plasmodium falciparum; conditions: Plasmodium falciparum, 3D7, 72 h, read-out: Overall (72hr assay) Mean IC50 (IC50^72h)
[3] = test system: 3D7-MR4 trophozoite parasite-infected RBCs; assay: Metabolomic profiling (hydrophilic metabolite changes, UHPLC-MS); type: cell-based, Plasmodium falciparum
[4] = test system: 3D7-A10 or Dd2-B2 parasites; conditions: 3 × IC50^72h drug concentrations; ref Phillips et al., 2015; cited from earlier work

## O=C1C(O)=C([C@H]2CC[C@H](c3ccc(Cl)cc3)CC2)C(=O)c2ccccc21 [Atovaquone, reference compound]
[1]; 8-h exposures
  overall activity profile (stages on which active): activity against late trophozoites only
[1]; 8-h exposures, survival curves
  killing in stage specificity assay: incomplete killing
[1]; 3D7, read-out: Early rings Mean IC50, shift 2
  pIC50: 6.26
[1]; 3D7, read-out: Early trophozoites Mean IC50, shift 1
  pIC50: 9.17
[1]; 3D7, read-out: Early trophozoites Mean IC50, shift 2
  pIC50: 6.21
[1]; 3D7, read-out: Late rings Mean IC50, shift 2
  pIC50: 6.49
[1]; 3D7, read-out: Late trophozoites Mean IC50, shift 1
  pIC50: 8.43
[1]; 3D7, read-out: Schizonts IC50, shift 2
  pIC50: < 4.60
[1]; 3D7, read-out: Schizonts Mean IC50, shift 1
  pIC50: 8.13
[1]; early trophozoite and schizont stages
  shape of survival curve: biphasic survival curve
[1]; period when the parasite was most susceptible (lowest IC50^8h)
  Stage of peak activity (Figure 6): late trophozoite stages
[1]; stage(s) with the lowest IC50^8h
  Peak Activity (Table S1): Late Trophs
[2]
  pIC50: 8.96
[3]
  Log2(fold change) Myristoyl/tetradecanoyl-CoA: -0.0411
  Log2(fold change) Octoluse 8/1P: 0.0910
  Log2(fold change) succinate/Methylmalonic acid: -0.8517
  Log2(fold change) succinyl-CoA/methylmalonyl-CoA: -0.2938
  Log2(fold change) threonine/homoserine: 0.0177
[3]; 10 × IC50^72h, 2.5 hr, trophozoites
  metabolic signature: increases in the pyrimidine precursors dihydroorotate and N-carbamoyl-L-aspartate (mETC disruption): observed
[3]; metabolite 3-phosphoglycerate, log2 fold change
  Log2(fold changes) 3-phosphoglycerate: -0.1329
[3]; metabolite 4-Pyridoxic acid, log2 fold change
  Log2(fold changes) 4-Pyridoxic acid: 0.0014
[3]; metabolite 4-aminobutyrate, log2 fold change
  Log2(fold changes) 4-aminobutyrate: 0.1923
[3]; metabolite 4-phosphopantetheine, log2 fold change
  Log2(fold changes) 4-phosphopantetheine: 0.0048
[3]; metabolite 4-phosphopantothenate, log2 fold change
  Log2(fold changes) 4-phosphopantothenate: -0.3512
[3]; metabolite 5-aminopentanoic acid, log2 fold change
  Log2(fold changes) 5-aminopentanoic acid: -0.0149
[3]; metabolite 5-methyl-THF, log2 fold change
  Log2(fold changes) 5-methyl-THF: -0.0146
[3]; metabolite 5-phosphoribosyl-1-pyrophosphate, log2 fold change
  Log2(fold changes) 5-phosphoribosyl-1-pyrophosphate: -0.1198
[3]; metabolite 6-phospho-D-gluconate, log2 fold change
  Log2(fold changes) 6-phospho-D-gluconate: 0.0051
[3]; metabolite HVDD
  Log2(fold change) HVDD: 0.0262
[3]; metabolite Hydroxyisocaproic acid
  Log2(fold change) Hydroxyisocaproic acid: -0.0150
[3]; metabolite IDP
  Log2(fold change) IDP: 0.0185
[3]; metabolite IMP
  Log2(fold change) IMP: 0.1599
[3]; metabolite Inositol
  Log2(fold change) Inositol: 0.0000
[3]; metabolite Isopentyl-PP
  Log2(fold change) Isopentyl-PP: -0.0191
[3]; metabolite L-arginino-succinate
  Log2(fold change) L-arginino-succinate: 0.1909
[3]; metabolite LD
  Log2(fold change) LD: 0.1960
[3]; metabolite N-Acetyl-L-alanine
  Log2(fold change) N-Acetyl-L-alanine: -0.3227
[3]; metabolite N-acetyl-L-ornithine
  Log2(fold change) N-acetyl-L-ornithine: 0.1921
[3]; metabolite N-acetyl-glucosamine-1/6-phosphate
  Log2(fold change) N-acetyl-glucosamine-1/6-phosphate: 0.3531
[3]; metabolite N-acetyl-glutamate
  Log2(fold change) N-acetyl-glutamate: 0.0422
[3]; metabolite N-acetyl-glutamine
  Log2(fold change) N-acetyl-glutamine: -0.1228
[3]; metabolite N-carbamoyl-L-aspartate
  Log2(fold change) N-carbamoyl-L-aspartate: 2.7565
[3]; metabolite NAD+
  Log2(fold change) NAD+: -0.0365
[3]; metabolite NADH
  Log2(fold change) NADH: -0.0409
[3]; metabolite NADP+
  Log2(fold change) NADP+: 0.1141
[3]; metabolite NADPH
  Log2(fold change) NADPH: -0.0085
[3]; metabolite O-acetyl-L-serine
  Log2(fold change) O-acetyl-L-serine: 0.0000
[3]; metabolite Octoluse Bisphosphate
  Log2(fold change) Octoluse Bisphosphate: -0.0867
[3]; metabolite PD
  Log2(fold change) PD: 0.2066
[3]; metabolite PE
  Log2(fold change) PE: 0.2833
[3]; metabolite PEE
  Log2(fold change) PEE: 0.1525
[3]; metabolite PEEK
  Log2(fold change) PEEK: 0.2544
[3]; metabolite PVNF
  Log2(fold change) PVNF: -0.1256
[3]; metabolite Pyroglutamic acid
  Log2(fold change) Pyroglutamic acid: -0.4514
[3]; metabolite Pyrophosphate
  Log2(fold change) Pyrophosphate: -0.0311
[3]; metabolite Ribose-5-phosphate
  Log2(fold change) Ribose-5-phosphate: -0.0776
[3]; metabolite S-adenosyl-L-homocysteine
  Log2(fold change) S-adenosyl-L-homocysteine: -0.0546
[3]; metabolite S-adenosyl-L-methioninamine
  Log2(fold change) S-adenosyl-L-methioninamine: 0.0342
[3]; metabolite S-adenosyl-L-methionine
  Log2(fold change) S-adenosyl-L-methionine: 0.0000
[3]; metabolite S-methyl-5'-thioadenosine
  Log2(fold change) S-methyl-5'-thioadenosine: 0.1207
[3]; metabolite SD
  Log2(fold change) SD: 0.1611
[3]; metabolite SDL
  Log2(fold change) SDL: 0.0455
[3]; metabolite SID
  Log2(fold change) SID: 0.0448
[3]; metabolite Sedoheptulose bisphosphate
  Log2(fold change) Sedoheptulose bisphosphate: -0.0991
[3]; metabolite Thiamine pyrophosphate
  Log2(fold change) Thiamine pyrophosphate: 0.0203
[3]; metabolite UDP-D-glucose, log2 fold change
  Log2(fold changes) UDP-D-glucose: 0.0102
[3]; metabolite UDP-D-glucuronate, log2 fold change
  Log2(fold changes) UDP-D-glucuronate: -0.0044
[3]; metabolite UDP-N-acetyl-glucosamine, log2 fold change
  Log2(fold changes) UDP-N-acetyl-glucosamine: -0.2854
[3]; metabolite UDP, log2 fold change
  Log2(fold changes) UDP: -1.0636
[3]; metabolite UMP, log2 fold change
  Log2(fold changes) UMP: -0.5975
[3]; metabolite UTP, log2 fold change
  Log2(fold changes) UTP: -1.2395
[3]; metabolite hydroxyphenylpyruvate
  Log2(fold change) hydroxyphenylpyruvate: 0.0147
[3]; metabolite hydroxyproline/Aminolevulinate
  Log2(fold change) hydroxyproline/Aminolevulinate: -0.0689
[3]; metabolite hypoxanthine
  Log2(fold change) hypoxanthine: -0.2575
[3]; metabolite indole
  Log2(fold change) indole: -0.1736
[3]; metabolite inosine
  Log2(fold change) inosine: -0.1123
[3]; metabolite isoleucine
  Log2(fold change) isoleucine: -0.2949
[3]; metabolite lactate
  Log2(fold change) lactate: -0.5142
[3]; metabolite leucine
  Log2(fold change) leucine: -0.2842
[3]; metabolite lysine
  Log2(fold change) lysine: 0.3188
[3]; metabolite malate
  Log2(fold change) malate: -0.2336
[3]; metabolite maleic acid
  Log2(fold change) maleic acid: -0.1204
[3]; metabolite methionine
  Log2(fold change) methionine: -0.2848
[3]; metabolite myo-inositol
  Log2(fold change) myo-inositol: -0.2098
[3]; metabolite nicotinamide mononucleotide
  Log2(fold change) nicotinamide mononucleotide: -0.0768
[3]; metabolite nicotinate
  Log2(fold change) nicotinate: -0.1572
[3]; metabolite ornithine
  Log2(fold change) ornithine: 0.0045
[3]; metabolite orotate
  Log2(fold change) orotate: 0.1233
[3]; metabolite orotidine-5'-phosphate
  Log2(fold change) orotidine-5'-phosphate: -0.3697
[3]; metabolite oxaloacetate
  Log2(fold change) oxaloacetate: -0.0126
[3]; metabolite p-aminobenzoate
  Log2(fold change) p-aminobenzoate: -0.0050
[3]; metabolite p-hydroxybenzoate
  Log2(fold change) p-hydroxybenzoate: 0.0562
[3]; metabolite pantothenate
  Log2(fold change) pantothenate: -0.2044
[3]; metabolite phenylalanine
  Log2(fold change) phenylalanine: -0.3684
[3]; metabolite phenylpyruvate
  Log2(fold change) phenylpyruvate: 0.0000
[3]; metabolite phosphoenolpyruvate
  Log2(fold change) phosphoenolpyruvate: -0.0614
[3]; metabolite prephenate
  Log2(fold change) prephenate: -0.0378
[3]; metabolite proline
  Log2(fold change) proline: -0.1933
[3]; metabolite pyridoxine
  Log2(fold change) pyridoxine: -0.3758
[3]; metabolite pyruvate
  Log2(fold change) pyruvate: -0.8812
[3]; metabolite riboflavin
  Log2(fold change) riboflavin: -0.0986
[3]; metabolite ribose
  Log2(fold change) ribose: -0.0745
[3]; metabolite ribose-phosphate
  Log2(fold change) ribose-phosphate: -0.1162
[3]; metabolite ribulose-5-phosphate
  Log2(fold change) ribulose-5-phosphate: -0.1031
[3]; metabolite serine
  Log2(fold change) serine: 0.0478
[3]; metabolite sn-glycerol-3-phosphate
  Log2(fold change) sn-glycerol-3-phosphate: 0.1848
[3]; metabolite taurine
  Log2(fold change) taurine: 0.0315
[3]; metabolite thiamine
  Log2(fold change) thiamine: -0.0450
[3]; metabolite thymidine
  Log2(fold change) thymidine: -0.1873
[3]; metabolite thymine, log2 fold change
  Log2(fold changes) thymine: 0.0000
[3]; metabolite trehalose-6-Phosphate, log2 fold change
  Log2(fold changes) trehalose-6-Phosphate: 0.0905
[3]; metabolite tryptophan, log2 fold change
  Log2(fold changes) tryptophan: -0.2480
[3]; metabolite tyrosine, log2 fold change
  Log2(fold changes) tyrosine: -0.2052
[3]; metabolite uridine, log2 fold change
  Log2(fold changes) uridine: -0.2906
[4]
  minimum inoculum for resistance: 2 × 10^7 parasites
